Data on three compounds can be found in patent publication US20100098788A1, “Extracts of Curcuma and Methods of Use Thereof” (priority 2008, published 2010).

Structures are written as SMILES. Read-outs that look alike come from different tables or passages of the source.

The target of one assay is T1, Aβ1-42 aggregation (Homo sapiens, UniProt P05067).
T1 construct: carried out with the synthetic Aβ1-42 peptide incubated with the extracts
Description: Interaction matrices of Extract 1 with extracts and curcuminoids in the Aβ1-42 aggregation assay. It is filed as biochemical.

A further assay has as its target T2, Aβ1-42 peptide (Homo sapiens, UniProt P05067).
T2 construct: carried out with the synthetic Aβ1-42 peptide incubated with the extracts
Description: Amyloid aggregation assay (thioflavin T fluorescence). It counts as biochemical. To be noted: 0 to 30 μg mL^−1, 120 h, 37° C.

The test system of assay [1] is Aβ1-40, 42 peptides secreted from SweAPP N2a cells. As to the kind of experiment: Aβ secretion ELISA in conditioned media of SweAPP N2a cells. It counts as cell-based. To be noted: 3-30 μg/ml, 12 h. For orientation: An ELISA detects its analyte on a solid surface through an enzyme-linked reagent.
Assay [2] relates to phosphorylated tau (Ser199/220 and AT8 antibodies) in Tg2576 mice. As to the kind of experiment: Western blot of phosphorylated tau in brain homogenates after oral treatment. To be noted: soluble fraction, oral 0.07% in chow, 6 months. It counts as in vivo. How it is done: The Tg2576 mice, which are engineered to develop AD within ca. 6 months after birth, were purchased from Taconic (Germantown, N.Y.). For oral administration of extracts, a total of 60 (30 female/30 male) Tg2576 mice with a B6/SJL background were employed. Beginning at 8 months of age, Tg2576 treatment mice were administered optimized turmeric Extract 1 and THC in NIH31 chow (0.07% in NIH31 chow, 167 mg/kg/day) or NIH31 chow alone (Control) for 6 months [n=20 (10 female/10 male)]. All mice were sacrificed at 14 months of age for analyses of Aβ levels and Aβ load in the brain according to previously described methods (J. Tan, T. Town, F. Crawford, T. Mori, A. DelleDonne, R. Crescentini, D. Obregon, R. A. Flavell and M. J. Mullan, 2002. Role of CD40 ligand in amyloidosis in transgenic Alzheimer's mice, Nat. Neurosci. 5:1288-1293). […]
Brain homogenates were obtained as previously described above. […] Densitometric analysis was done as previously described using a FluorS Multiimager with Quantity One™ software (BioRad, Hercules, Calif.) (K. Rezai-Zadeh, D. Shytle, N. Sun, T. Mori, H. Hou, D. Jeanniton, J. Ehrhart, K. Townsend, J. Zeng, D. Morgan, J. Hardy, T. Town and J. Tan, 2005. Green tea epigallocatechin-3-gallate (EGCG) modulates amyloid precursor protein cleavage and reduces cerebral amyloidosis in Alzheimer transgenic mice, J. Neurosci. 25:8807-8814).

For assay [3], the system named is IL-4 and IL-2 in splenocytes of Tg2576 mice. As to the kind of experiment: Cytokine ELISA of anti-CD3 stimulated primary splenocyte cultures from treated mice. It is filed as in vivo. To be noted: splenocytes stimulated 24 h with anti-CD3 antibody. How it is done:
FIG. 9 depicts the IL-4 to IL-2 cytokine profile of Extract 1- and THC-treated Tg2576 mice. Following sacrifice, primary cultures of splenocytes were established from the mice and stimulated for 24 hours with anti-CD3 antibody.
The Tg2576 mice, which are engineered to develop AD within ca. 6 months after birth, were purchased from Taconic (Germantown, N.Y.). For oral administration of extracts, a total of 60 (30 female/30 male) Tg2576 mice with a B6/SJL background were employed. […]
As described in the previous studies (J. Tan, T. Town, D. Paris, T. Mori, Z. Suo, F. Crawford, M. P. Mattson, R. A. Flavell and M. Mullan, 1999. Microglial activation resulting from CD40-CD40L interaction after beta-amyloid stimulation, Science. 286:2352-2355; J. Tan, T. Town, M. Saxe, D. Paris, Y. Wu and M. Mullan, 1999. Ligation of microglial CD40 results in p44/42 mitogen-activated protein kinase-dependent TNF-alpha production that is opposed by TGF-beta 1 and IL-10, J. Immunol. 163:6614-6621) cell cultured media were collected for measurement of cytokines by commercial cytokine ELISA kits. […] Cytokines were quantified using commercially available ELISAs (BioSource International, Inc., Camarillo, Calif.) that allow for detection of IL-2 and IL-4. […]

T1 sequence (P05067 672-713): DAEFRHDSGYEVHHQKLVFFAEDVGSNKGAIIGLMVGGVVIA
T2 sequence (P05067 672-713): as above

Turning to `COc1cc(/C=C/C(=O)CC(=O)/C=C/c2ccc(O)c(OC)c2)ccc1O` [Curcumin, curcumin], the Effect entry at Aβ1-42 aggregation (interaction with Extract 1 (synergistic, antagonistic or additive)) is on record as “Additive”. Further, the “inhibition of Aβ1-42 aggregation” value on Aβ1-42 peptide is “effective”.

`COc1cc(/C=C/C(O)=C/C(=O)/C=C/c2ccc(O)cc2)ccc1O` [DMC, demethoxycurcumin]: on Aβ1-42 aggregation (extract or standard alone, Aβ1-42 aggregation, read-out: IC50 Individual (converted)), the IC50 was 1700 µM. Moreover, the “inhibition of Aβ generation” value in assay [1] is listed as “ca. 10%”.

For `COc1cc(CCC(=O)CC(=O)CCc2ccc(O)c(OC)c2)ccc1O` [THC, tetrahydrocurcumin], in assay [2], the “reduction of tau hyper-phosphorylation compared to control” value is reported as “ca. 40%”. For the same compound, the IC50 against Aβ1-42 aggregation was 95.3 µM. Also, the “ratio of IL-4 to IL-2 cytokine levels” value in assay [3] was determined as 0.8.

By IC50 is commonly meant the concentration that inhibits the measured activity by half.
